According to the NIST ThermoML archive (doi:10.1021/acs.jced.8b01048):

Columns and labels:
[1] = xn = mol fraction of the nth substance listed; conditions: 100 kPa, Liquid, Vibrating tube method
[2] = 100 kPa, Liquid, Vibrating tube method

C[S+](C)[O-] [dimethyl sulfoxide] + CC(=O)[O-].CCn1cc[n+](C)c1
[1], x1 = 1
Conditions | mass density [kg/m3]
293.15 K | 1100.2
303.15 K | 1090.2
313.15 K | 1080.4
323.15 K | 1070.2
333.15 K | 1060.3
343.15 K | 1050.2
353.15 K | 1040.2
363.15 K | 1029.9
373.15 K | 1019.8

CC(=O)[O-].C[N+](C)(C)CCO [choline acetate] + C[S+](C)[O-]
mass density [kg/m3], [1]
Conditions | 293.15 K | 303.15 K | 313.15 K | 323.15 K | 333.15 K | 343.15 K | 353.15 K | 363.15 K | 373.15 K
x2 = 0.503 | – | – | – | – | – | 1067.3 | 1060.8 | 1054.6 | 1048.4
x2 = 0.598 | – | – | – | – | 1073.6 | 1066.7 | 1059.8 | 1053 | 1046.4
x2 = 0.701 | – | – | – | 1079.6 | 1072.3 | 1065 | 1057.6 | 1050.4 | 1043.3
x2 = 0.799 | – | – | 1086 | 1077.9 | 1070 | 1061.8 | 1053.8 | 1045.6 | 1037.6
x2 = 0.899 | 1102.7 | 1093.9 | 1085.1 | 1076.3 | 1067.4 | 1058.6 | 1049.8 | 1040.9 | 1032.3

C[S+](C)[O-] [dimethyl sulfoxide]
[2]
Conditions | mass density [kg/m3]
293.15 K | 1100.2
303.15 K | 1090.2
313.15 K | 1080.4
323.15 K | 1070.2
333.15 K | 1060.3
343.15 K | 1050.2
353.15 K | 1040.2
363.15 K | 1029.9
373.15 K | 1019.8

CC(=O)[O-].CCn1cc[n+](C)c1 [1-ethyl-3-methylimidazolium acetate] + O
[1], x2 = 0.018
Conditions | mass density [kg/m3]
293.15 K | 1101.7
303.15 K | 1095.6
313.15 K | 1089.6
323.15 K | 1083.7
333.15 K | 1077.7
343.15 K | 1071.8
353.15 K | 1065.9
363.15 K | 1060
373.15 K | 1054.2

CC(=O)[O-].CCn1cc[n+](C)c1 [1-ethyl-3-methylimidazolium acetate]
[2]
Conditions | mass density [kg/m3]
293.15 K | 1101.7
303.15 K | 1095.6
313.15 K | 1089.6
323.15 K | 1083.7
333.15 K | 1077.7
343.15 K | 1071.8
353.15 K | 1065.9
363.15 K | 1060
373.15 K | 1054.2

C[S+](C)[O-] [dimethyl sulfoxide] + O
[1], x1 = 0.998
Conditions | mass density [kg/m3]
293.15 K | 1100.2
303.15 K | 1090.2
313.15 K | 1080.4
323.15 K | 1070.2
333.15 K | 1060.3
343.15 K | 1050.2
353.15 K | 1040.2
363.15 K | 1029.9
373.15 K | 1019.8
